One data set concerns Sphaerotheca fuliginea. The data set can be described thus: In vivo preventive test on Sphaerotheca fuliginea (powdery mildew on cucurbits). The note with it: gherkin plants, preventive spray, 500 ppm of active ingredient, grading 12 days after contamination. On the procedure:
Gherkin plants (“Vert petit de Paris” variety), sown in starter cups on a 50/50 peat soil-pozzolana substrate and grown at 24° C., are treated at the Z11 cotyledon stage by spraying with the active ingredient prepared as described above. Plants, used as controls, are treated with the mixture of acetone/tween/DMSO/water not containing the active material. After 24 hours, the plants are contaminated by spraying the cotyledons with an aqueous suspension of Sphaerotheca fuliginea spores (100 000 spores per mL). The spores are collected from infected plants. The contaminated gherkin plants are incubated at about 20° C. and at 70-80% relative humidity. Grading (% of efficacy) is carried out 12 days after the contamination, in comparison with the control plants.

Data set [1] can be described thus: log P by HPLC on reversed-phase column (C 18), EEC Directive 79/831 Annex V.A8. It is filed as physicochemical. To be noted: 40° C., 0.1% aqueous formic acid and acetonitrile, linear gradient 10% to 90% acetonitrile. On the procedure: In table 1, the log P values were determined in accordance with EEC Directive 79/831 Annex V.A8 by HPLC (High Performance Liquid Chromatography) on a reversed-phase column (C 18), using the method described below:
Temperature: 40° C.; Mobile phases: 0.1% aqueous formic acid and acetonitrile; linear gradient from 10% acetonitrile to 90% acetonitrile.
Calibration was carried out using unbranched alkan-2-ones (comprising 3 to 16 carbon atoms) with known log P values (determination of the log P values by the retention times using linear interpolation between two successive alkanones). lambda-max-values were determined using UV-spectra from 200 nm to 400 nm and the peak values of the chromatographic signals.

The next data set has as its system Alternaria brassicae. The data set can be described thus: In vivo preventive test on Alternaria brassicae (leaf spot on radish). The note with it: preventive spray, 500 ppm of active ingredient, grading 6 days after contamination. On the procedure: Radish plants (“Pernod Clair” variety), sown in starter cups on a 50/50 peat soil pozzolana substrate and grown at 17° C., are treated at the cotyledon stage by spraying with the active ingredient prepared as described above. Plants, used as controls, are treated with the mixture of acetone/tween/DMSO/water not containing the active material. After 24 hours, the plants are contaminated by spraying the cotyledons with an aqueous suspension of Alternaria brassicae spores (50 000 spores per mL). The spores are collected from a 15-day-old culture. The contaminated radish plants are incubated at 20° C. and at 100% relative humidity. Grading (% of efficacy) is carried out 6 days after the contamination, in comparison with the control plants.

Another data set deals with Septoria tritici. The data set can be described thus: In vivo preventive test on Septoria tritici (wheat). The note with it: preventive spray, 500 ppm of active ingredient, grading 24 days after contamination. On the procedure:
Wheat plants (“Scipion” variety), sown in starter cups on a 50/50 peat soil pozzolana substrate and grown at 22° C., are treated at the 1 leaf stage (10 cm height) by spraying with the active ingredient prepared as described above. Plants, used as controls, are treated with the mixture of acetone/tween/DMSO/water not containing the active material. After 24 hours, the plants are contaminated by spraying the leaves with an aqueous suspension of cryopreserved Septoria tritici spores (500 000 spores per mL). The contaminated wheat plants are incubated for 72 hours at 18° C. and at 100% relative humidity, and then for 21 days at 90% relative humidity. Grading (% of efficacy) is carried out 24 days after the contamination, in comparison with the control plants.

In another data set the test system is Pyrenophora teres. Put plainly: In vivo preventive test on Pyrenophora teres (barley). The note with it: preventive spray (DMF/alkylaryl polyglycol ether), 500 ppm of active ingredient, evaluated 7-9 days after inoculation. How it is done:
(§1) Solvent: 49 parts by weight of N,N-dimethylformamide Emulsifier: 1 part by weight of alkylaryl polyglycol ether To produce a suitable preparation of active compound, 1 part by weight of active compound is mixed with the stated amounts of solvent and emulsifier, and the concentrate is diluted with water to the desired concentration. To test for preventive activity, young plants are sprayed with the preparation of active compound at the stated rate of application. One day after this treatment, the plants are inoculated with an aqueous spore suspension of Pyrenophora teres. The plants remain for 48 hours in an incubation cabinet at 22° C. and a relative atmospheric humidity of 100%. Then the plants are placed in a greenhouse at a temperature of approximately 20° C. and a relative atmospheric humidity of approximately 80%.

The subject of another data set is Puccinia recondita. The data set can be described thus: In vivo preventive test on Puccinia recondita (brown rust on wheat). The note with it: preventive spray, 500 ppm of active ingredient, grading 12 days after contamination. On the procedure: Wheat plants (“Scipion” variety), sown in starter cups on a 50/50 peat soil pozzolana substrate and grown at 22° C., are treated at the 1 leaf stage (10 cm height) by spraying with the active ingredient prepared as described above. Plants, used as controls, are treated with the mixture of acetone/tween/DMSO/water not containing the active material. After 24 hours, the plants are contaminated by spraying the leaves with an aqueous suspension of Puccinia recondita spores (100 000 spores per mL). The spores are collected from an infected plant and are suspended in water containing 2.5 mL/L of Tween 80 at 10%. The contaminated wheat plants are incubated for 24 hours at 20° C. and at 100% relative humidity, and then for 10 days at 20° C. and at 70-80% relative humidity. Grading (% of efficacy) is carried out 12 days after the contamination, in comparison with the control plants.

The subject of the next data set is Alternaria solani. Put plainly: In vivo preventive test on Alternaria solani (tomato). The note with it: preventive spray, 500 ppm of active ingredient, evaluated 7 days after inoculation. On the procedure:
Solvent: 49 parts by weight of N,N-dimethylformamide Emulsifier: 1 part by weight of alkylaryl polyglycol ether To produce a suitable preparation of active compound, 1 part by weight of active compound is mixed with the stated amounts of solvent and emulsifier, and the concentrate is diluted with water to the desired concentration. To test for preventive activity, young plants are sprayed with the preparation of active compound at the stated rate of application. One day after this treatment, the plants are inoculated with an aqueous spore suspension of Alternaria solani. The plants remain for one day in an incubation cabinet at approximately 22° C. and a relative atmospheric humidity of 100%. Then the plants are placed in an incubation cabinet at approximately 20° C. and a relative atmospheric humidity of 96%.

A further data set concerns Leptosphaeria nodorum. The data set can be described thus: In vivo preventive test on Leptosphaeria nodorum (wheat). The note with it: preventive spray, 500 ppm of active ingredient, evaluated 7-9 days after inoculation. How it is done: as §1, with “sprayed with a preparation of” for “sprayed with the preparation of”, “suspension of Leptosphaeria nodorum. The plants” for “suspension of Pyrenophora teres. The plants”, “of approximately 22° C. and” for “of approximately 20° C. and”, “of approximately 90%.” for “of approximately 80%.”

For `C[Si](C)(CN(C(=O)c1cccnc1C(F)F)C1CC1)c1ccccc1` [Example 5], the Efficacy came to 89% with Sphaerotheca fuliginea, 96% in the data set with Alternaria brassicae and 80% in the data set on Septoria tritici. The molecule also yielded a logP in data set [1] of 3.44.
As for `C[Si](C)(CN(C(=O)c1cccnc1C(F)(F)F)C1CC1)c1ccccc1` [Example 8], in data set [1], the logP was 3.89. Also, the Efficacy worked out at 100% in the data set on Pyrenophora teres, 88% in the data set on Alternaria brassicae and 100% in the data set on Septoria tritici.
For the molecule `Cc1ccccc1[Si](C)(C)CN(C(=O)c1nccnc1C(F)(F)F)C1CC1` [Example 10], the Efficacy was 78% in the data set with Sphaerotheca fuliginea, 100% in the data set with Pyrenophora teres, 88% in the data set on Alternaria brassicae and 79% in the data set on Septoria tritici. In data set [1], this molecule showed a logP of 4.41.
On to `Cc1ccccc1[Si](C)(C)CN(C(=O)c1cccnc1C(F)(F)F)C1CC1` [Example 11], for which the Efficacy in the data set with Sphaerotheca fuliginea stood at 94%; in the data set on Pyrenophora teres, 97%; in the data set on Puccinia recondita, 88%; in the data set with Alternaria brassicae, 88%. This molecule also came in with a logP in data set [1] of 4.18.
The molecule `Cc1ccccc1[Si](C)(C)CN(C(=O)c1cccnc1C(F)F)C1CC1` [Example 12] gave a logP in data set [1] of 3.73. Also, the Efficacy was found to be 97% in the data set on Pyrenophora teres, 88% in the data set on Alternaria brassicae and 79% in the data set with Septoria tritici.
Taken in the same sequence, the figures for `C[Si](C)(CN(C(=O)c1cccnc1C(F)F)C1CC1)c1ccccc1F` [Example 16] were 3.51, 100%, 95% and 71%.
On to `CCc1ccccc1[Si](C)(C)CN(C(=O)c1cccnc1C(F)(F)F)C1CC1` [Example 20], for which the Efficacy with Sphaerotheca fuliginea is on record as 100%; in the data set on Pyrenophora teres it was 100%; with Puccinia recondita it was 88%; in the data set with Alternaria brassicae it was 75%; in the data set with Septoria tritici it was 93%. Further, the lipophilicity (logP) in data set [1] amounted to 4.51.
Consider `CC[Si](C)(CN(C(=O)c1cccnc1C(F)F)C1CC1)c1ccccc1Cl` (centres unmarked) [Example 36], for which the Efficacy was found to be 94% in the data set on Sphaerotheca fuliginea, 81% in the data set with Puccinia recondita, 90% in the data set with Alternaria brassicae and 90% in the data set on Septoria tritici. The logP in data set [1] was 4.21.
For `CC[Si](C)(CN(C(=O)c1nccnc1C(F)(F)F)C1CC1)c1ccccc1Cl` (centres unmarked) [Example 44], the Efficacy in the data set on Sphaerotheca fuliginea came to 94%; in the data set on Pyrenophora teres, 93%; with Puccinia recondita, 75%; in the data set with Alternaria brassicae it was 75%; in the data set with Septoria tritici it was 86%. Also, the logP in data set [1] stood at 4.95.
Consider `C[Si](C)(CN(C(=O)c1cccnc1C(F)(F)F)C1CC1)c1ccc(F)cc1Cl` [Example 47], for which, in data set [1], the lipophilicity (logP) is listed as 4.41. In addition, the Efficacy in the data set with Pyrenophora teres stood at 97%; in the data set with Alternaria brassicae, 75%; in the data set with Septoria tritici, 93%.
With `C[Si](C)(CN(C(=O)c1cccnc1C(F)(F)F)C1CC1)c1cc(F)ccc1Cl` [Example 48], the Efficacy turned out to be 98% in the data set on Sphaerotheca fuliginea; 97% in the data set with Pyrenophora teres; 88% in the data set on Puccinia recondita; 75% with Alternaria brassicae; 93% in the data set on Septoria tritici. In data set [1], this molecule displayed a logP of 4.34.
Regarding `C[Si](C)(CN(C(=O)c1nccnc1C(F)(F)F)C1CC1)c1cc(F)ccc1Cl` [Example 49], the logP in data set [1] is listed as 4.59. Further, the Efficacy in the data set with Pyrenophora teres is given as 97%; with Puccinia recondita, 88%; with Alternaria brassicae, 75%; in the data set on Septoria tritici, 100%.
On to `C[Si](C)(CN(C(=O)c1cccnc1Cl)C1CC1)c1cc(F)ccc1Cl` [Example 50], for which the Efficacy in the data set on Sphaerotheca fuliginea turned out to be 98%; with Pyrenophora teres it was 97%; with Puccinia recondita it was 75%; in the data set with Alternaria brassicae it was 75%. Further, the logP in data set [1] worked out at 3.99.
As for `C[Si](C)(CN(C(=O)c1nccnc1C(F)(F)F)C1CC1)c1ccc(F)cc1Cl` [Example 52], the Efficacy in the data set on Sphaerotheca fuliginea is 94%; with Pyrenophora teres, 100%; with Alternaria brassicae, 100%; in the data set on Septoria tritici, 97%. Moreover, the logP in data set [1] was found to be 4.67.
On to `C[Si](C)(CN(C(=O)c1cccnc1C(F)F)C1CC1)c1ccccc1C(F)(F)F` [Example 56], for which the Efficacy with Sphaerotheca fuliginea stood at 83%; in the data set on Pyrenophora teres, 100%; in the data set with Alternaria brassicae, 88%; in the data set with Septoria tritici it was 100%. The molecule also gave a logP in data set [1] of 3.94.
Regarding `C[Si](C)(CNC(=O)c1cccnc1C(F)F)c1cc(Cl)cc(Cl)c1` [Example 63], the Efficacy turned out to be 95% in the data set with Alternaria solani; 71% in the data set with Sphaerotheca fuliginea; 95% with Pyrenophora teres; 97% with Puccinia recondita; 96% with Septoria tritici. Moreover, the logP in data set [1] worked out at 3.69.
For `C[Si](C)(CN(C(=O)c1nccnc1C(F)(F)F)C1CC1)c1cccc2ccccc12` [Example 72], the Efficacy with Alternaria solani was 89%; in the data set on Pyrenophora teres it was 95%; with Leptosphaeria nodorum, 80%. In addition, the logP in data set [1] was found to be 4.77.
`C[Si](C)(Cc1ccccc1Cl)CN(C(=O)c1nccnc1C(F)(F)F)C1CC1` [Example 99]: in data set [1], the logP turned out to be 4.82. For the same molecule, the Efficacy in the data set on Pyrenophora teres and in the data set on Leptosphaeria nodorum was 70% throughout.
Consider `C[Si](C)(Cc1cc(Cl)cc(Cl)c1)CN(C(=O)c1cccnc1C(F)F)C1CC1` [Example 117], for which the Efficacy in the data set with Alternaria solani came to 75%; with Pyrenophora teres, 90%. This molecule also registered a logP in data set [1] of 4.77.

For the origin of these results see US9617286B2, “Fungicide N-[(trisubstitutedsilyl)methyl]-carboxamide derivatives” (BAYER INTELLECTUAL PROPERTY GMBH, priority 2011, dated 2017).
